Counter-ions that a name gives are not always drawn.
Target: T1, LTD4 (Cavia porcellus, UniProt Q2NNR5)
T1 construct: isolated guinea pig trachea; from tissue; host or cells: guinea pig tracheal rings
T1 sequence (Q2NNR5 1-340): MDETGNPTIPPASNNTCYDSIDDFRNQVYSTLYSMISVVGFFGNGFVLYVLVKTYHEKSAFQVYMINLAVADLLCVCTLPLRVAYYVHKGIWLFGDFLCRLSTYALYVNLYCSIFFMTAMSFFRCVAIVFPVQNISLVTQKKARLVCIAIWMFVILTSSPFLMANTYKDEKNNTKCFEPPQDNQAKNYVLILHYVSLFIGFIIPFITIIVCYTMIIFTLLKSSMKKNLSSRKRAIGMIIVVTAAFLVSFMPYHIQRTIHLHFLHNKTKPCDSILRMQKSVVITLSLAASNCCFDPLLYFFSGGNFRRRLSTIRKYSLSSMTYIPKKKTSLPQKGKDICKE
Experiment: LTD4 antagonist activity in isolated guinea pig trachea
Format: cell-based
Details: 1 × 10^-5 M
Description: The LTD4 antagonist activity of the compounds of the invention is assessed in the in vitro isolated guinea pig trachea assay. Male Hartley guinea pigs (350-400 g) are euthanized by a blow to the head, the neck is opened and the trachea removed. The trachea is maintained in aerated physiological salt solution, cleared of connective tissue and fat and cut into rings approximately 2 mm in width (usually containing two cartilaginous segments per ring). Two pieces of silk suture are then passed through the lumen of the tracheal ring and are tied around the cartilage, one on each side of the trachealis muscle. The tracheal ring is suspended between a glass hook and a force displacement transducer in a 10 ml organ bath for measurement of isometric tension. Tissues are maintained at 37° C. in aerated ([…] /5% CO2) physiological salt solution of the following composition: […] The tracheal rings are maintained at 2 g resting tension and equilibrated for 45 minutes (with frequence washing and readjustment of resting tension). The tracheal rings are first contracted by the addition of carbachol (3×10^-6 M), to determine tissue responsiveness and establish a reference contraction. On attainment of a stable level of contraction (approximately 30 minutes), the tissues are washed several times until baseline tension has been restored and the re-equilibrated for 30 minutes. The tissues are then incubated for 45 minutes with a test antagonist (either 1×10^-6 M or 1×10^-5 M) or 10 μl of an appropriate solvent control (control, non-treated). One tissue in each group serves as the control. Twenty minutes prior to the construction of the LTD4 cumulative concentration-response curve, L-[…]×10^-2 M final bath concentration) is added to inhibit bioconversion of LTD4 to LTE4. Only one LTD4 concentration-response curve is constructed in each tissue. All responses to LTD4 in an individual tissue are measured as a percentage of the reference contraction of that tissue to carbachol. LTD4 antagonist activity is determined by comparison of the concentration response curves of LTD4 in the presence and absence of antagonist. Assessment of the relative rightward shift of the antagonist treated curve relative to the solvent (control) treated tissue is calculated as a concentration ratio (Eq. A) and used in subsequent calculations to derive an antagonist pKB value (Eqs. B and C). In the vent that the maximum response to LTD4 is depressed, the EC50 for that particular curve is determined, an "apparent" pKB reported, and the compound reported as "not-competitive." [formula] If a compound is found to be active and/or depress the maximal response to LTD4, then a range of concentrations of the test compound should be used generating multiple concentration ratios which would than be used to perform a Schild analysis, and determination of a pA2 value where appropriate.

Compound | Kb [µM]
C[C@H](C(=O)O)c1ccc2cc(OCc3ccc4ccccc4n3)ccc2c1 [Example 17, S-(α)-α-Methyl-6-(2-quinolinylmethoxy)-2-naphthaleneacetic acid, tromethanime salt] | 0.631
C[C@H](C(=O)N(C)O)c1ccc2cc(OCc3ccc4ccccc4n3)ccc2c1 [Example 24, (S)-N-Hydroxy-α-N-dimethyl-6-(2-quinolinylmethoxy)-2-naphthaleneacetamide] | 0.501

From patent US5208344A, “Naphthalenepropionic acid derivatives as anti-inflammatory/antiallergic agents” (American Home Products Corporation, priority 1991, dated 1993)
